Data taken from PMC7407272, “Induction of Lysosome Membrane Permeabilization as a Therapeutic Strategy to Target Pancreatic Cancer Stem Cells” (Cancers, 2020).

Tests used:
Test in all cases: KINOMEscan
Type in all cases: binding
Settings in all cases: read-out: % Ctrl
BIKE = target: T1, BIKE (Homo sapiens, UniProt Q9NSY1)
T1 construct: purchased DiscoveRx KINOMEscan

MST2 = target: T2, MST2 (Homo sapiens, UniProt Q13188)
T2 construct: purchased DiscoveRx KINOMEscan

PCTK3 = target: T3, PCTK3 (Homo sapiens, UniProt Q07002)
T3 construct: purchased DiscoveRx KINOMEscan

TSSK1B = target: T4, TSSK1B (Homo sapiens, UniProt Q9BXA7)
T4 construct: purchased DiscoveRx KINOMEscan

CSNK1A1 = target: T5, CSNK1A1 (Homo sapiens, UniProt P48729)
T5 construct: purchased DiscoveRx KINOMEscan

CLK3 = target: T6, CLK3 (Homo sapiens, UniProt P49761)
T6 construct: purchased DiscoveRx KINOMEscan

STK33 = target: T7, STK33 (Homo sapiens, UniProt Q9BYT3)
T7 construct: purchased DiscoveRx KINOMEscan

CAMK1B = target: T8, CAMK1B (Homo sapiens, UniProt Q6P2M8)
T8 construct: purchased DiscoveRx KINOMEscan

NLK = target: T9, NLK (Homo sapiens, UniProt Q9UBE8)
T9 construct: purchased DiscoveRx KINOMEscan

ABL1(H396P)-P = target: T10, ABL1(H396P)-P (Homo sapiens, UniProt P00519, H396P)
T10 construct: purchased DiscoveRx KINOMEscan

PRKCH = target: T11, PRKCH (Homo sapiens, UniProt P24723)
T11 construct: purchased DiscoveRx KINOMEscan

AURKC = target: T12, AURKC (Homo sapiens, UniProt Q9UQB9)
T12 construct: purchased DiscoveRx KINOMEscan

IRAK4 = target: T13, IRAK4 (Homo sapiens, UniProt Q9NWZ3)
T13 construct: purchased DiscoveRx KINOMEscan

TNIK = target: T14, TNIK (Homo sapiens, UniProt Q9UKE5)
T14 construct: purchased DiscoveRx KINOMEscan

GRK2 = target: T15, GRK2 (Homo sapiens, UniProt P25098)
T15 construct: purchased DiscoveRx KINOMEscan

EIF2AK1 = target: T16, EIF2AK1 (Homo sapiens, UniProt Q9BQI3)
T16 construct: purchased DiscoveRx KINOMEscan

LRRK2(G2019S) = target: T17, LRRK2(G2019S) (Homo sapiens, UniProt Q5S007, G2019S)
T17 construct: purchased DiscoveRx KINOMEscan

WNK3 = target: T18, WNK3 (Homo sapiens, UniProt Q9BYP7)
T18 construct: purchased DiscoveRx KINOMEscan

EPHA4 = target: T19, EPHA4 (Homo sapiens, UniProt P54764)
T19 construct: purchased DiscoveRx KINOMEscan

TRPM6 = target: T20, TRPM6 (Homo sapiens, UniProt Q9BX84)
T20 construct: purchased DiscoveRx KINOMEscan

GRK3 = target: T21, GRK3 (Homo sapiens, UniProt P35626)
T21 construct: purchased DiscoveRx KINOMEscan

ALK = target: T22, ALK (Homo sapiens, UniProt Q9UM73)
T22 construct: purchased DiscoveRx KINOMEscan

TXK = target: T23, TXK (Homo sapiens, UniProt P42681)
T23 construct: purchased DiscoveRx KINOMEscan

ULK1 = target: T24, ULK1 (Homo sapiens, UniProt O75385)
T24 construct: purchased DiscoveRx KINOMEscan

RSK3(KD2-C-t.) = target: T25, RSK3(KD2-C-t.) (Homo sapiens, UniProt Q15349)
T25 construct: RSK3(KD2-C-t.); purchased DiscoveRx KINOMEscan

CDC2L1 = target: T26, CDC2L1 (Homo sapiens, UniProt P21127)
T26 construct: purchased DiscoveRx KINOMEscan

PFCDPK1(P.falciparum) = target: T27, PFCDPK1(P.falciparum) (Plasmodium falciparum, UniProt P62344)
T27 construct: purchased DiscoveRx KINOMEscan

TIE1 = target: T28, TIE1 (Homo sapiens, UniProt P35590)
T28 construct: purchased DiscoveRx KINOMEscan

NEK3 = target: T29, NEK3 (Homo sapiens, UniProt P51956)
T29 construct: purchased DiscoveRx KINOMEscan

EPHA3 = target: T30, EPHA3 (Homo sapiens, UniProt P29320)
T30 construct: purchased DiscoveRx KINOMEscan

FGFR4 = target: T31, FGFR4 (Homo sapiens, UniProt P22455)
T31 construct: purchased DiscoveRx KINOMEscan

ABL1-P = target: T32, ABL1-P (Homo sapiens, UniProt P00519)
T32 construct: purchased DiscoveRx KINOMEscan

SYK = target: T33, SYK (Homo sapiens, UniProt P43405)
T33 construct: purchased DiscoveRx KINOMEscan

CIT = target: T34, CIT (Homo sapiens, UniProt O14578)
T34 construct: purchased DiscoveRx KINOMEscan

RSK4(KD2-C-t.) = target: T35, RSK4(KD2-C-t.) (Homo sapiens, UniProt Q9UK32)
T35 construct: RSK4(KD2-C-t.); purchased DiscoveRx KINOMEscan

MAP3K3 = target: T36, MAP3K3 (Homo sapiens, UniProt Q99759)
T36 construct: purchased DiscoveRx KINOMEscan

RIOK2 = target: T37, RIOK2 (Homo sapiens, UniProt Q9BVS4)
T37 construct: purchased DiscoveRx KINOMEscan

DDR1 = target: T38, DDR1 (Homo sapiens, UniProt Q08345)
T38 construct: purchased DiscoveRx KINOMEscan

PLK2 = target: T39, PLK2 (Homo sapiens, UniProt Q9NYY3)
T39 construct: purchased DiscoveRx KINOMEscan

CSNK1G3 = target: T40, CSNK1G3 (Homo sapiens, UniProt Q9Y6M4)
T40 construct: purchased DiscoveRx KINOMEscan

MET = target: T41, MET (Homo sapiens, UniProt P08581)
T41 construct: purchased DiscoveRx KINOMEscan

PRP4 = target: T42, PRP4 (Homo sapiens, UniProt Q13523)
T42 construct: purchased DiscoveRx KINOMEscan
Procedure: (§1) The KINOMEscan ^TM screening platform employs an active site-directed competition binding assay to quantitatively measure interactions between test compound and 468 human kinases and disease relevant mutant variants. […] The assay was performed at DiscoveRx Corporation.

CDC2L5 = target: T43, CDC2L5 (Homo sapiens, UniProt Q14004)
T43 construct: purchased DiscoveRx KINOMEscan
Procedure: as §1

T11 sequence (P24723 whole entry): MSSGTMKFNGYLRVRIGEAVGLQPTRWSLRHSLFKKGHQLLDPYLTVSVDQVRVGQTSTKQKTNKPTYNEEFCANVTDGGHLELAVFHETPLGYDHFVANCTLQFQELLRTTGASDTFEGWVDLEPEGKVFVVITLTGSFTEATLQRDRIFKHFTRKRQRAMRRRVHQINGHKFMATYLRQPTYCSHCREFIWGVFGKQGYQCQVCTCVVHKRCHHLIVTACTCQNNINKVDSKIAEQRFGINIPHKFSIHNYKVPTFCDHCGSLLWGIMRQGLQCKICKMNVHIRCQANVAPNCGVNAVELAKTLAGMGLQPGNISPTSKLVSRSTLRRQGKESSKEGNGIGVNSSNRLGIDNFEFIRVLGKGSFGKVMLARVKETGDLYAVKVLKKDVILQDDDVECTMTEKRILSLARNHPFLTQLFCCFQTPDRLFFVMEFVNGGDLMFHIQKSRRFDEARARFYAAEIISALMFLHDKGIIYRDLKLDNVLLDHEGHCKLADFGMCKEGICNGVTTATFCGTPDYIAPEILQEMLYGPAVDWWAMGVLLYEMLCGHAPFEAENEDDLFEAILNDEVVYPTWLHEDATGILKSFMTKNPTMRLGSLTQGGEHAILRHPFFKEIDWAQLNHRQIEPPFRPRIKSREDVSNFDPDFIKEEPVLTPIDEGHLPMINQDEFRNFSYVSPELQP
T34 sequence (O14578 whole entry): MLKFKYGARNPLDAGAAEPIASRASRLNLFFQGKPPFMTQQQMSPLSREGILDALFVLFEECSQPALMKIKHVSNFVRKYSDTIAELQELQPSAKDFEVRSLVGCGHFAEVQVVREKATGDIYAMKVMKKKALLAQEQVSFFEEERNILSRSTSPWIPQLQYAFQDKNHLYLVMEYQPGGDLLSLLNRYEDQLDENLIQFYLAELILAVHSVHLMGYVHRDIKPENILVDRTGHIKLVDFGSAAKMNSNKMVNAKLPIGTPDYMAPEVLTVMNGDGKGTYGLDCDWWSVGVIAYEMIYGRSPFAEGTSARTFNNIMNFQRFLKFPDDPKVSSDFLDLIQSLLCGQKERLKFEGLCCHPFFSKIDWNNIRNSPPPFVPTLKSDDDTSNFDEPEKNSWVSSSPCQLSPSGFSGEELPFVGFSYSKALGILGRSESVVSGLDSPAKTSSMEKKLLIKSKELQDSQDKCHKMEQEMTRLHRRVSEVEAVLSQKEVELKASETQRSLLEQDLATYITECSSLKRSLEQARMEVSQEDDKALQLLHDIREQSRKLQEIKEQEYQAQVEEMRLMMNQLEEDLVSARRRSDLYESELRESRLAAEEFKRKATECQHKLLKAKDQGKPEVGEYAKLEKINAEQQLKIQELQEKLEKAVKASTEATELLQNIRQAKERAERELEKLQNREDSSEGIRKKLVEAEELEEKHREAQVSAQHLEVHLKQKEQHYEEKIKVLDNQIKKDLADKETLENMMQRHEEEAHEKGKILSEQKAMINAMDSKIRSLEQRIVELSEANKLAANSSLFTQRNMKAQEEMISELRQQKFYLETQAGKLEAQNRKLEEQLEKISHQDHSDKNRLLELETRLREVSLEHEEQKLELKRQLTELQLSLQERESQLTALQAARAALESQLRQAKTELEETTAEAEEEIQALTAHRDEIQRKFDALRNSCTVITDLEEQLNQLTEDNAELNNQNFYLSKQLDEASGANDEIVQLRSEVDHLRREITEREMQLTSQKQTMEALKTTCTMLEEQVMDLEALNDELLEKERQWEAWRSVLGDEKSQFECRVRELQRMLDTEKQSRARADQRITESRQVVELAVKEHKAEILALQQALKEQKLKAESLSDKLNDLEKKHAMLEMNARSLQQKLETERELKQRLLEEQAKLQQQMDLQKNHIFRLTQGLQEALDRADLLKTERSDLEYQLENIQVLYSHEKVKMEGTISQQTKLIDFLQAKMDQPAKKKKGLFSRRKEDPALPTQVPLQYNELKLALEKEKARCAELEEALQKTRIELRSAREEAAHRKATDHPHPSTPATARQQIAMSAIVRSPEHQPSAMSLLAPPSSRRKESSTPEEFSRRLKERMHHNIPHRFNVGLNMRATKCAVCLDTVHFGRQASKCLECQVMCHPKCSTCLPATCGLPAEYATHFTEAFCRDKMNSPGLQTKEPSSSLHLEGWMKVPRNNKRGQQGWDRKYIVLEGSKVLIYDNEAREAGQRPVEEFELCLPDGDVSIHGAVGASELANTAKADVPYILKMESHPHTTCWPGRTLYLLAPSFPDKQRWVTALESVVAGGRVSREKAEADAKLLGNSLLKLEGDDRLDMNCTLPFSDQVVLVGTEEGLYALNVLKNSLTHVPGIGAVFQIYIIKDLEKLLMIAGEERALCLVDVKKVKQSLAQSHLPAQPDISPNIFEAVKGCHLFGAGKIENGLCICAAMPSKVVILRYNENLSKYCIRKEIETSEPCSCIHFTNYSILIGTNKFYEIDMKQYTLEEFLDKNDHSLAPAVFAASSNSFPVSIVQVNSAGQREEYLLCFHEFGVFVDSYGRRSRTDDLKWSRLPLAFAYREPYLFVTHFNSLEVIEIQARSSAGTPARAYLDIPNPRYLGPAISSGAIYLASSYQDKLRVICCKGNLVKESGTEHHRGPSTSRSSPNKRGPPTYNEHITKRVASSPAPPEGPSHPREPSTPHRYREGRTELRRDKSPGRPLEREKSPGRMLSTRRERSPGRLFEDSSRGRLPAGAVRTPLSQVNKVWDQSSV
T2 sequence (Q13188 whole entry): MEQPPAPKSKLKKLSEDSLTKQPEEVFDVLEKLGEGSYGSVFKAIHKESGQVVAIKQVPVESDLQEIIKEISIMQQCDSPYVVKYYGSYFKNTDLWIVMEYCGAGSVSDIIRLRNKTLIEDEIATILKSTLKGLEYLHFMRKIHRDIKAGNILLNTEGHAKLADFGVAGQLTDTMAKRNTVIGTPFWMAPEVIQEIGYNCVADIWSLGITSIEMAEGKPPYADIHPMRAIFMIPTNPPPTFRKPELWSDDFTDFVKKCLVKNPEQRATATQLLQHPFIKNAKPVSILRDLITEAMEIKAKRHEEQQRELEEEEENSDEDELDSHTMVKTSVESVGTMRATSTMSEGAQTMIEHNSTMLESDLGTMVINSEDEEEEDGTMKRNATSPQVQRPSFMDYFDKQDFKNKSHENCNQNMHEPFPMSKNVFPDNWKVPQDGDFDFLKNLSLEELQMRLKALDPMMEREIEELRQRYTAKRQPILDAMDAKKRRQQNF
T6 sequence (P49761 whole entry): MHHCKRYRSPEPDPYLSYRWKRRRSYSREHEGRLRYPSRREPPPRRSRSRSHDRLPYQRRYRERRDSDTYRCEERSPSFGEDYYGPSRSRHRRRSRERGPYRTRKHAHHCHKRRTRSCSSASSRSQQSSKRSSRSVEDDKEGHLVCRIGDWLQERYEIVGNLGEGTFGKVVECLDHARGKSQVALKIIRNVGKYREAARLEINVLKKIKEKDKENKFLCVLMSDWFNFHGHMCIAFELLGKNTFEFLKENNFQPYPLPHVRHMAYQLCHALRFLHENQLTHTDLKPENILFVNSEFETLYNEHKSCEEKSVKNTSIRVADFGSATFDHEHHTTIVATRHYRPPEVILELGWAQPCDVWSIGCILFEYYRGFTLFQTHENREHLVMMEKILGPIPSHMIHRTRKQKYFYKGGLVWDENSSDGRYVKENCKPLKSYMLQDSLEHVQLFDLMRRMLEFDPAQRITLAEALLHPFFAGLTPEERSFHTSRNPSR
T23 sequence (P42681 whole entry): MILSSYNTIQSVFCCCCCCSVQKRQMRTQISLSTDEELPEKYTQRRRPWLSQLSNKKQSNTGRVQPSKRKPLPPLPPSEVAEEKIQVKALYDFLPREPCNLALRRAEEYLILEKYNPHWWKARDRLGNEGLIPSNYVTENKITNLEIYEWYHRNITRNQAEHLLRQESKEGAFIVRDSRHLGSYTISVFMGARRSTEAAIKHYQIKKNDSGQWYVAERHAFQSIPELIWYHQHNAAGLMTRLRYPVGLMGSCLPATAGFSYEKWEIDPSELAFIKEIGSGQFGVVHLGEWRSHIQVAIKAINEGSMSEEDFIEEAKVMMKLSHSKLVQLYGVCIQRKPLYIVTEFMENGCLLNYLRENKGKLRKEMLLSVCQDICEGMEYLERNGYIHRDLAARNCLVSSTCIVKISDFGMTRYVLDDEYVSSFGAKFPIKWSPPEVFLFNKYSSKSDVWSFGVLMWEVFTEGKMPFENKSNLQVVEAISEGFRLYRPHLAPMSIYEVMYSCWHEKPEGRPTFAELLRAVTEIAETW
T29 sequence (P51956 whole entry): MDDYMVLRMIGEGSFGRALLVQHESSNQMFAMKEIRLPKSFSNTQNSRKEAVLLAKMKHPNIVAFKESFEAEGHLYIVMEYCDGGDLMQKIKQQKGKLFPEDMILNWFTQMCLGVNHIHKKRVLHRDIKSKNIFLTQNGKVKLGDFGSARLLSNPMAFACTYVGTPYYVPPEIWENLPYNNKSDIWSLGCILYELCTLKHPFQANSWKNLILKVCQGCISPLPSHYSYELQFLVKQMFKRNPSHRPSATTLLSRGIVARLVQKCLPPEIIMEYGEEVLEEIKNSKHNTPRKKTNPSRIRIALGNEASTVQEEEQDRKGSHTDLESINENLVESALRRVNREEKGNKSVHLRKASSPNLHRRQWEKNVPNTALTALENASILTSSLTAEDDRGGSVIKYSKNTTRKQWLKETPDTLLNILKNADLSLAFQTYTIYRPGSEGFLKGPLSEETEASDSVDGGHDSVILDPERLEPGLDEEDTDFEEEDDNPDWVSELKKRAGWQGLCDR
T8 sequence (Q6P2M8 whole entry): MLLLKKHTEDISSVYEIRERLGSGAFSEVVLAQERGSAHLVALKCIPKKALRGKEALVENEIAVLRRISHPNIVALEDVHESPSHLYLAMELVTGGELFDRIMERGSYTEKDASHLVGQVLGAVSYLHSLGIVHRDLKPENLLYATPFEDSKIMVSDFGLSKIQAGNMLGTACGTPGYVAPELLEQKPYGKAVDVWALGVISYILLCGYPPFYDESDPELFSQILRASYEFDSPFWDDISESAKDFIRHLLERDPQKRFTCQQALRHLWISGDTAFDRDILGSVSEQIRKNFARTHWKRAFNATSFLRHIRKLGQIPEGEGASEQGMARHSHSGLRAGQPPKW

`CN1CCC(CNc2ccc3ncc(C(=O)Nc4cccc(OC(F)(F)F)c4)n3n2)CC1` [Cpd 2] was tested, and the remaining binding at 1 µM (BIKE) was 83%, the remaining binding at 1 µM (MST2) was 100% and the remaining binding at 1 µM (PCTK3) was 100%. For the same compound, the remaining binding at 1 µM (TSSK1B) was 95%, the remaining binding at 1 µM (CSNK1A1) was 100% and the remaining binding at 1 µM (CLK3) was 93%. It also gave a remaining binding at 1 µM (STK33) of 100%, a remaining binding at 1 µM (CAMK1B) of 97% and a remaining binding at 1 µM (NLK) of 97%. It also gave a remaining binding at 1 µM (ABL1(H396P)-P) of 100%, a remaining binding at 1 µM (PRKCH) of 99% and a remaining binding at 1 µM (AURKC) of 95%. It also gave a remaining binding at 1 µM (IRAK4) of 100%, a remaining binding at 1 µM (TNIK) of 81% and a remaining binding at 1 µM (GRK2) of 79%. The remaining binding at 1 µM (EIF2AK1) was 95%, the remaining binding at 1 µM (LRRK2(G2019S)) was 93% and the remaining binding at 1 µM (WNK3) was 99%. It also gave a remaining binding at 1 µM (EPHA4) of 88%, a remaining binding at 1 µM (TRPM6) of 100% and a remaining binding at 1 µM (GRK3) of 76%. For the same compound, the remaining binding at 1 µM (ALK) was 100%, the remaining binding at 1 µM (TXK) was 100% and the remaining binding at 1 µM (ULK1) was 98%. The remaining binding at 1 µM (RSK3(KD2-C-t.)) was 74%, the remaining binding at 1 µM (CDC2L1) was 100% and the remaining binding at 1 µM (PFCDPK1(P.falciparum)) was 88%. For the same compound, the remaining binding at 1 µM (TIE1) was 90%, the remaining binding at 1 µM (NEK3) was 100% and the remaining binding at 1 µM (EPHA3) was 92%. It also gave a remaining binding at 1 µM (FGFR4) of 100%, a remaining binding at 1 µM (ABL1-P) of 95% and a remaining binding at 1 µM (SYK) of 94%. It also gave a remaining binding at 1 µM (CIT) of 60%, a remaining binding at 1 µM (RSK4(KD2-C-t.)) of 84% and a remaining binding at 1 µM (MAP3K3) of 96%. For the same compound, the remaining binding at 1 µM (RIOK2) was 99%, the remaining binding at 1 µM (DDR1) was 92% and the remaining binding at 1 µM (PLK2) was 91%. The remaining binding at 1 µM (CSNK1G3) was 100%, the remaining binding at 1 µM (MET) was 100% and the remaining binding at 1 µM (PRP4) was 100%. For the same compound, the remaining binding at 1 µM (CDC2L5) was 100%.
